Results: patent US8119669B2, “Substituted phenoxy N-alkylated thiazolidinediones as estrogen related receptor-α modulators” (Janssen Pharmaceutica N.V., priority 2007, dated 2012)
pEC50: −log10 of the molar value.

molecular target: T1, ERR1 (also known as ERR-α or ERR-1) (Homo sapiens, UniProt P11474); assay: TR-FRET Assay (disruption of co-activator peptide binding to ERR1 LBD); assay type: biochemical; settings: 6His-tagged ERR1 LBD 6 nM, GST-hSRC2 co-activator peptide 6 nM; 25° C., 4-18 hours; average of 3 independent experiments
T1 sequence (P11474 193-421 limits assumed): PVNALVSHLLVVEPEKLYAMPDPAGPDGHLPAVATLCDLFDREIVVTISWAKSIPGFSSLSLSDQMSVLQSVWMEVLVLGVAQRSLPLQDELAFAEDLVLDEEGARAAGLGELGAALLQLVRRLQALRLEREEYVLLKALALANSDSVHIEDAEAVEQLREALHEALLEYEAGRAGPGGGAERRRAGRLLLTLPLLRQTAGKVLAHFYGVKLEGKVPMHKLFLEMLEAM
Experimental: Time-Resolved Fluorescence Resonance Energy Transfer (TR-FRET) experiments were performed to examine the functional response of ERR1 (also known as ERR-α or ERR-1) ligands. The TR-FRET assay described herein relied on the conformation of ERR1 for binding to a co-activator peptide: when a test compound binds to ERR1 and alters its conformation, it can disrupt the binding of the co-activator peptide. The components of this homogeneous secondary assay included: the ^6His-tagged-ERR1LBD, a GST-labeled-hSRC2 co-activator polypeptide and a fluorescent donor/acceptor pair from CIS bio international htrf/bioassays (Bedford, Mass.) using both an α-GST Europium Cryptate (Eu) label and an α^6His-XL665 (allophycocyanin) fluorophore.
For TR-FRET measurements, the reaction was buffered in 25 mM Tris pH 8, 2.5 mM Hepes, 20 mM KCl, 1 mM DTT, and 0.05 mg/mL BSA (-lipids). The final concentrations of reagents were 6 nM of ERR1LBD, 6 nM GST-SRC-2 peptide, 30 nM Eu cryptate, and 7.5 nM XL665. Reactions were allowed to reach equilibrium at 25° C. for 4-18 hours before collecting data on the Analyst from LJL Biosystems (Molecular Devices Sunnyvale, Calif.). As a time-resolved method, the samples were excited at […] and emission was collected for 1 ms at both 615 and 665 nm with delays of 400 and 75 μs, respectively. Dose response curves were fitted using a hyperbolic equation and the data reported is the average of 3 independent experiments.

pEC50	Compound
7.70	COc1cc(/C=C2\SC(=O)N(CCN3CCOCC3)C2=O)ccc1Oc1ccc(C#N)cc1C(F)(F)F [Compound 1, 4-{2-Methoxy-4-[3-(2-morpholin-4-yl-ethyl)-2,4-dioxo-thiazolidin-5-ylidenemethyl]-phenoxy}-3-trifluoromethyl-benzonitrile]
7.41	COc1cc(/C=C2\SC(=O)N(CCN(C)C)C2=O)ccc1Oc1ccc(C#N)cc1C(F)(F)F [Compound 2, 4-{4-[3-(2-Dimethylamino-ethyl)-2,4-dioxo-thiazolidin-5-ylidenemethyl]-2-methoxy-phenoxy}-3-trifluoromethyl-benzonitrile]
7.38	COc1cc(/C=C2\SC(=O)N(CCN3CCCC3)C2=O)ccc1Oc1ccc(C#N)cc1C(F)(F)F [Compound 3, 4-{4-[2,4-Dioxo-3-(2-pyrrolidin-1-yl-ethyl)-thiazolidin-5-ylidenemethyl]-2-methoxy-phenoxy}-3-trifluoromethyl-benzonitrile]
6.49	COc1cc(/C=C2\SC(=O)N(CCN3CCN(C)CC3)C2=O)ccc1Oc1ccc(C#N)cc1C(F)(F)F [Compound 4, 4-(2-Methoxy-4-{3-[2-(4-methyl-piperazin-1-yl)-ethyl]-2,4-dioxo-thiazolidin-5-ylidenemethyl}-phenoxy)-3-trifluoromethyl-benzonitrile]
6.44	CN(C)CCN1C(=O)S/C(=C\c2ccc(Oc3ccc(C#N)cc3C(F)(F)F)c(F)c2)C1=O [Compound 5, 4-{4-[3-(2-Dimethylamino-ethyl)-2,4-dioxo-thiazolidin-5-ylidenemethyl]-2-fluoro-phenoxy}-3-trifluoromethyl-benzonitrile]
6.49	N#Cc1ccc(Oc2ccc(/C=C3\SC(=O)N(CCN4CCOCC4)C3=O)cc2F)c(C(F)(F)F)c1 [Compound 6, 4-{2-Fluoro-4-[3-(2-morpholin-4-yl-ethyl)-2,4-dioxo-thiazolidin-5-ylidenemethyl]-phenoxy}-3-trifluoromethyl-benzonitrile]
7.23	CCN(CC)CCN1C(=O)S/C(=C\c2ccc(Oc3ccc(C#N)cc3C(F)(F)F)c(OC)c2)C1=O [Compound 7, 4-{4-[3-(2-Diethylamino-ethyl)-2,4-dioxo-thiazolidin-5-ylidenemethyl]-2-methoxy-phenoxy}-3-trifluoromethyl-benzonitrile]
7.49	COc1cc(/C=C2\SC(=O)N(CCn3ccnc3)C2=O)ccc1Oc1ccc(C#N)cc1C(F)(F)F [Compound 8, 4-{4-[3-(2-Imidazol-1-yl-ethyl)-2,4-dioxo-thiazolidin-5-ylidenemethyl]-2-methoxy-phenoxy}-3-trifluoromethyl-benzonitrile]
7.48	COc1cc(/C=C2\SC(=O)N(CCN3CCCCC3)C2=O)ccc1Oc1ccc(C#N)cc1C(F)(F)F [Compound 9, 4-{4-[2,4-Dioxo-3-(2-piperidin-1-yl-ethyl)-thiazolidin-5-ylidenemethyl]-2-methoxy-phenoxy}-3-trifluoromethyl-benzonitrile]
7.23	COc1cc(/C=C2\SC(=O)N(CCn3cccn3)C2=O)ccc1Oc1ccc(C#N)cc1C(F)(F)F [Compound 10, 4-{4-[2,4-Dioxo-3-(2-pyrazol-1-yl-ethyl)-thiazolidin-5-ylidenemethyl]-2-methoxy-phenoxy}-3-trifluoromethyl-benzonitrile]
7.62	COc1cc(/C=C2\SC(=O)N(CCn3cncn3)C2=O)ccc1Oc1ccc(C#N)cc1C(F)(F)F [Compound 11, 4-{4-[2,4-Dioxo-3-(2-[1,2,4]triazol-1-yl-ethyl)-thiazolidin-5-ylidenemethyl]-2-methoxy-phenoxy}-3-trifluoromethyl-benzonitrile]
7.36	COc1cc(/C=C2\SC(=O)N(CCN3CCCCCC3)C2=O)ccc1Oc1ccc(C#N)cc1C(F)(F)F [Compound 12, 4-{4-[3-(2-Azepan-1-yl-ethyl)-2,4-dioxo-thiazolidin-5-ylidenemethyl]-2-methoxy-phenoxy}-3-trifluoromethyl-benzonitrile]
7.07	COc1cc(/C=C2\SC(=O)N(CCn3cccc3)C2=O)ccc1Oc1ccc(C#N)cc1C(F)(F)F [Compound 13, 4-{4-[2,4-Dioxo-3-(2-pyrrol-1-yl-ethyl)-thiazolidin-5-ylidenemethyl]-2-methoxy-phenoxy}-3-trifluoromethyl-benzonitrile]
6.64	N#Cc1ccc(Oc2ccc(/C=C3\SC(=O)N(CCN4CCCC4)C3=O)cc2F)c(C(F)(F)F)c1 [Compound 14, 4-{4-[2,4-Dioxo-3-(2-pyrrolidin-1-yl-ethyl)-thiazolidin-5-ylidenemethyl]-2-fluoro-phenoxy}-3-trifluoromethyl-benzonitrile]
